Laboratory results reported in US12486266B2, “Crystalline form of JAK inhibitor and application thereof” (Zhuhai United Laboratories CO., LTD., priority 2020, dated 2025).
Read-outs that look alike come from different tables or passages of the source. Marks after values point to notes of the source that are not given here.

How the values were obtained:
[1] = tested on: collagen induced arthritis (CIA) in mice; conditions: for Average clinical score / Incidence rate: dosing from day 28
[2] = tested on: adjuvant induced arthritis (AIA) rat model
[3] = day 31, 0.3 mg/kg p.o. qd, listed as Dex.
[4] = day 13, 0.3 mg/kg p.o. qd from day 13
[5] = day 15, 0.3 mg/kg p.o. qd from day 13
[6] = day 17, 0.3 mg/kg p.o. qd from day 13
[7] = day 20, 0.3 mg/kg p.o. qd from day 13
[8] = day 22, 0.3 mg/kg p.o. qd from day 13
[9] = day 24, 0.3 mg/kg p.o. qd from day 13
[10] = day 27, 0.3 mg/kg p.o. qd from day 13
[11] = day 27, 0.3 mg/kg p.o. qd from day 13, listed as Dexamethasone acetate
[12] = right hind foot, day 27, 0.3 mg/kg p.o. qd
[13] = day 15, 30 mg/kg p.o. bid from day 13
[14] = day 17, 30 mg/kg p.o. bid from day 13
[15] = day 20, 30 mg/kg p.o. bid from day 13
[16] = day 22, 30 mg/kg p.o. bid from day 13
[17] = day 24, 30 mg/kg p.o. bid from day 13

C[C@@H]1C[C@H]2[C@@H]3CCC4=CC(=O)C=C[C@]4(C)[C@@]3(F)[C@@H](O)C[C@]2(C)[C@@]1(O)C(=O)CO [Dexamethasone]
Inhibition rate (clinical score AUC vs control group) ([1]; 0.3 mg/kg p.o. qd 14 days): 97.3% | Inhibition rate (clinical score AUC vs control group) ([1]; 0.3 mg/kg p.o. qd 14 days, listed as Dex.): 97.3% | AUC ± SEM (area under incidence/clinical score curve) ([1]; administration period, 0.3 mg/kg p.o. qd 14 days): 1.38 ± 0.81 | Average clinical score ([1]; day 21, 0.3 mg/kg p.o. qd): 0.00 ± 0.00 | Incidence rate ([1]; day 21, 0.3 mg/kg p.o. qd): 0% | Average clinical score ([1]; day 24, 0.3 mg/kg p.o. qd): 0.00 ± 0.00 | Incidence rate ([1]; day 24, 0.3 mg/kg p.o. qd): 0% | Average clinical score ([1]; day 27, 0.3 mg/kg p.o. qd): about 0.3 | Incidence rate ([1]; day 27, 0.3 mg/kg p.o. qd): 25% | Average clinical score ([1]; day 27, 0.3 mg/kg p.o. qd, listed as Dex.): 0.25 ± 0.16 | Average clinical score ([1]; day 28, 0.3 mg/kg p.o. qd): 0.50 ± 0.27 | Incidence rate ([1]; day 28, 0.3 mg/kg p.o. qd): 38% | Average clinical score ([1]; day 29, 0.3 mg/kg p.o. qd): 0.25 ± 0.16 | Incidence rate ([1]; day 29, 0.3 mg/kg p.o. qd): 25% | Average clinical score ([1]; day 31, 0.3 mg/kg p.o. qd): 0 | Incidence rate ([1]; day 31, 0.3 mg/kg p.o. qd): 0% | Average clinical score [1, 3]: 0.00 ± 0.00 | Incidence rate [1, 3]: 0% | Average clinical score ([1]; day 34, 0.3 mg/kg p.o. qd): 0.00 ± 0.00 | Incidence rate ([1]; day 34, 0.3 mg/kg p.o. qd): 0% | Average clinical score ([1]; day 36, 0.3 mg/kg p.o. qd): 0.00 ± 0.00 | Incidence rate ([1]; day 36, 0.3 mg/kg p.o. qd): 0% | Average clinical score ([1]; day 38, 0.3 mg/kg p.o. qd): 0.00 ± 0.00 | Incidence rate ([1]; day 38, 0.3 mg/kg p.o. qd): 0% | Average clinical score ([1]; day 41, 0.3 mg/kg p.o. qd): 0.00 ± 0.00 | Incidence rate ([1]; day 41, 0.3 mg/kg p.o. qd): 0% | Inhibition rate (total pathological score vs solvent control) ([2]; 0.3 mg/kg p.o. qd): 72.5% | Clinical score (mean) [2, 4]: 6.0 | Foot volume (mean) [2, 4]: 1.9 mL | Clinical score (mean) [2, 5]: 5.3* | Foot volume (mean) [2, 5]: 1.7**** mL | Clinical score (mean) [2, 6]: 4.1**** | Foot volume (mean) [2, 6]: 1.4**** mL | Clinical score (mean) [2, 7]: 3.4**** | Foot volume (mean) [2, 7]: 1.3**** mL | Clinical score (mean) [2, 8]: 3.1**** | Foot volume (mean) [2, 8]: 1.3**** mL | Clinical score (mean) [2, 9]: 3.1**** | Foot volume (mean) [2, 9]: 1.2**** mL | Clinical score (mean) [2, 10]: 2.7 | Foot volume (mean) [2, 10]: 1.21 mL | Clinical score (mean) [2, 11]: 2.9**** | Foot volume (mean) [2, 11]: 1.2**** mL | Pathological score: Bone resorption [2, 12]: 0.6 ± 0.2 | Pathological score: Cartilage injury [2, 12]: 0.6 ± 0.2 | Pathological score: Inflammatory cell infiltration [2, 12]: 1.8 ± 0.2 | Pathological score: Pannus formation [2, 12]: 1.4 ± 0.3 | Pathological score: Total score [2, 12]: 4.4±0.8 | Pathological score: Total score ([2]; right hind foot, day 27, 0.3 mg/kg p.o. qd, listed as Dexamethasone acetate): 4.4 ± 0.8

O=C(Nc1nc2cccc(-c3ccc(CN4CCS(=O)(=O)CC4)cc3)n2n1)C1CC1 [Filgotinib]
Incidence rate ([1]; day 21, 15 mg/kg p.o. bid): 0% | Incidence rate ([1]; day 24, 15 mg/kg p.o. bid): 0% | Incidence rate ([1]; day 27, 15 mg/kg p.o. bid): 25% | Incidence rate ([1]; day 29, 15 mg/kg p.o. bid): 50% | Incidence rate ([1]; day 31, 15 mg/kg p.o. bid): 75% | Incidence rate ([1]; day 34, 15 mg/kg p.o. bid): 88% | Incidence rate ([1]; day 36, 15 mg/kg p.o. bid): 88% | Incidence rate ([1]; day 38, 15 mg/kg p.o. bid): 88% | Incidence rate ([1]; day 41, 15 mg/kg p.o. bid): 100% | Clinical score (mean) [2, 13]: 6.6 | Foot volume (mean) [2, 13]: 2.2 mL | Clinical score (mean) [2, 14]: 6.3 | Foot volume (mean) [2, 14]: 2.0** mL | Clinical score (mean) [2, 15]: 5.8** | Foot volume (mean) [2, 15]: 1.9**** mL | Clinical score (mean) [2, 16]: 5.5*** | Foot volume (mean) [2, 16]: 2.0**** mL | Clinical score (mean) [2, 17]: 5.4**** | Foot volume (mean) [2, 17]: 2.0**** mL | Foot volume (mean) ([2]; day 27, 30 mg/kg p.o. bid from day 13): 1.9**** mL | Pathological score: Bone resorption ([2]; right hind foot, day 27, 30 mg/kg p.o. bid): 3.6 ± 0.2
